Experimental data: patent US12077503B2, “Substituted cyclic amides and their use as herbicides” (FMC CORPORATION, priority 2015, dated 2024)

Key:
Type in all cases: in vivo
[1] = system: Kochia (Kochia scoparia); assay: Test A preemergence; conditions: Bassia scoparia, pre-emergence, 240 h, 0 to 100 scale (0 no effect, 100 complete control), read-out: Plant response rating, Kochia; for pest or weed control at 500 g/ha: 500 g ai/ha, preemergence; for pest or weed control at 125 g/ha: Preemergence, 125 g ai/ha
Outline: (§1)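 Visual injury scores from 0, no effect, to 100, complete control, were assigned versus untreated controls roughly 10 d after treatment in the greenhouse. Test chemicals, formulated with surfactant in a non-phytotoxic solvent, were applied to planted seeds as a preemergence soil spray or postemergence to one- to two-leaf plants 2 to 10 cm tall, in loam–sand soil.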

[2] = system: barnyardgrass (Echinochloa crus-galli); assay: Test A preemergence; conditions: Echinochloa crus-galli, pre-emergence, 240 h, 0 to 100 scale (0 no effect, 100 complete control), read-out: Plant response rating, Barnyardgrass; for pest or weed control at 500 g/ha: 500 g ai/ha, preemergence; for pest or weed control at 125 g/ha: Preemergence, 125 g ai/ha
Outline: as §1

[3] = system: giant foxtail (Setaria faberii); assay: Test A preemergence; conditions: Setaria faberi, pre-emergence, 240 h, 0 to 100 scale (0 no effect, 100 complete control), read-out: Plant response rating, Foxtail, Giant; for pest or weed control at 500 g/ha: 500 g ai/ha, preemergence; for pest or weed control at 125 g/ha: Preemergence, 125 g ai/ha
Outline: as §1

[4] = system: pigweed (Amaranthus retroflexus); assay: Test A preemergence; conditions: Amaranthus retroflexus, pre-emergence, 240 h, 0 to 100 scale (0 no effect, 100 complete control), read-out: Plant response rating, Pigweed; for pest or weed control at 500 g/ha: 500 g ai/ha, preemergence; for pest or weed control at 125 g/ha: Preemergence, 125 g ai/ha
[5] = system: ragweed (common ragweed, Ambrosia elatior); assay: Test A preemergence; conditions: Ambrosia artemisiifolia, pre-emergence, 240 h, 0 to 100 scale (0 no effect, 100 complete control), read-out: Plant response rating, Ragweed; for pest or weed control at 500 g/ha: 500 g ai/ha, preemergence; for pest or weed control at 125 g/ha: Preemergence, 125 g ai/ha
Outline: as §1

[6] = system: ryegrass, Italian (Italian ryegrass, Lolium multiflorum); assay: Test A preemergence; conditions: Lolium multiflorum, pre-emergence, 240 h, 0 to 100 scale (0 no effect, 100 complete control), read-out: Plant response rating, Ryegrass, Italian; for pest or weed control at 500 g/ha: 500 g ai/ha, preemergence; for pest or weed control at 125 g/ha: Preemergence, 125 g ai/ha
Outline: as §1

[7] = system: Galium (catchweed bedstraw, Galium aparine); assay: Test A postemergence; conditions: Galium, post-emergence, 240 h, Postemergence, read-out: Plant response rating, Galium; for pest or weed control at 125 g/ha: 125 g ai/ha, visual injury after approx. 10 d, 0 to 100 scale, 0 no effect, 100 complete control; for pest or weed control at 500 g/ha: 500 g ai/ha, visual injury, 0 to 100 scale (0 no effect, 100 complete control), approx. 10 d
Outline: as §1

[8] = system: Kochia (Kochia scoparia); assay: Test A postemergence; conditions: Bassia scoparia, post-emergence, 240 h, Postemergence, read-out: Plant response rating, Kochia; for pest or weed control at 125 g/ha: 125 g ai/ha, visual injury after approx. 10 d, 0 to 100 scale, 0 no effect, 100 complete control; for pest or weed control at 500 g/ha: 500 g ai/ha, visual injury, 0 to 100 scale (0 no effect, 100 complete control), approx. 10 d
Outline: as §1

[9] = system: barnyardgrass (Echinochloa crus-galli); assay: Test A postemergence; conditions: Echinochloa crus-galli, post-emergence, 240 h, Postemergence, read-out: Plant response rating, Barnyardgrass; for pest or weed control at 125 g/ha: 125 g ai/ha, visual injury after approx. 10 d, 0 to 100 scale, 0 no effect, 100 complete control; for pest or weed control at 500 g/ha: 500 g ai/ha, visual injury, 0 to 100 scale (0 no effect, 100 complete control), approx. 10 d
Outline: as §1

[10] = system: corn (Zea mays); assay: Test A postemergence; conditions: Zea mays, post-emergence, 240 h, Postemergence; for Corn plant response rating (crop injury, 0 = no effect, 100 = complete kill) at 125 g/ha: 125 g ai/ha, visual injury after approx. 10 d, 0 to 100 scale, 100 complete control; for Corn plant response rating (crop injury, 0 = no effect, 100 = complete kill) at 500 g/ha: 500 g ai/ha, visual injury, 0 to 100 scale (0 no effect, 100 complete control), approx. 10 d
Outline: as §1

[11] = system: giant foxtail (Setaria faberii); assay: Test A postemergence; conditions: Setaria faberi, post-emergence, 240 h, Postemergence, read-out: Plant response rating, Foxtail, Giant; for pest or weed control at 125 g/ha: 125 g ai/ha, visual injury after approx. 10 d, 0 to 100 scale, 0 no effect, 100 complete control; for pest or weed control at 500 g/ha: 500 g ai/ha, visual injury, 0 to 100 scale (0 no effect, 100 complete control), approx. 10 d
Outline: as §1

[12] = system: pigweed (Amaranthus retroflexus); assay: Test A postemergence; conditions: Amaranthus retroflexus, post-emergence, 240 h, Postemergence, read-out: Plant response rating, Pigweed; for pest or weed control at 125 g/ha: 125 g ai/ha, visual injury after approx. 10 d, 0 to 100 scale, 0 no effect, 100 complete control; for pest or weed control at 500 g/ha: 500 g ai/ha, visual injury, 0 to 100 scale (0 no effect, 100 complete control), approx. 10 d
Outline: as §1

[13] = system: ragweed (common ragweed, Ambrosia elatior); assay: Test A postemergence; conditions: Ambrosia artemisiifolia, post-emergence, 240 h, Postemergence, read-out: Plant response rating, Ragweed; for pest or weed control at 125 g/ha: 125 g ai/ha, visual injury after approx. 10 d, 0 to 100 scale, 0 no effect, 100 complete control; for pest or weed control at 500 g/ha: 500 g ai/ha, visual injury, 0 to 100 scale (0 no effect, 100 complete control), approx. 10 d
Outline: as §1

[14] = system: ryegrass, Italian (Italian ryegrass, Lolium multiflorum); assay: Test A postemergence; conditions: Lolium multiflorum, post-emergence, 240 h, Postemergence, read-out: Plant response rating, Ryegrass, Italian; for pest or weed control at 125 g/ha: 125 g ai/ha, visual injury after approx. 10 d, 0 to 100 scale, 0 no effect, 100 complete control; for pest or weed control at 500 g/ha: 500 g ai/ha, visual injury, 0 to 100 scale (0 no effect, 100 complete control), approx. 10 d
Outline: as §1

[15] = system: wheat (Triticum aestivum); assay: Test A postemergence; conditions: Triticum aestivum, post-emergence, 240 h, Postemergence, read-out: Plant response rating, Wheat; for plant injury at 125 g/ha: 125 g ai/ha, visual injury after approx. 10 d, 0 to 100 scale, 0 no effect, 100 complete control; for plant injury at 500 g/ha: 500 g ai/ha, visual injury, 0 to 100 scale (0 no effect, 100 complete control), approx. 10 d
Outline: as §1

SMILES | pest or weed control at 500 g/ha [1] [%] | pest or weed control at 125 g/ha [1] [%] | pest or weed control at 500 g/ha [2] [%] | pest or weed control at 125 g/ha [2] [%] | pest or weed control at 500 g/ha [3] [%] | pest or weed control at 125 g/ha [3] [%] | pest or weed control at 500 g/ha [4] [%] | pest or weed control at 125 g/ha [4] [%] | pest or weed control at 500 g/ha [5] [%] | pest or weed control at 125 g/ha [5] [%] | pest or weed control at 500 g/ha [6] [%] | pest or weed control at 125 g/ha [6] [%] | pest or weed control at 125 g/ha [7] [%] | pest or weed control at 500 g/ha [7] [%] | pest or weed control at 125 g/ha [8] [%] | pest or weed control at 500 g/ha [8] [%] | pest or weed control at 125 g/ha [9] [%] | pest or weed control at 500 g/ha [9] [%] | Corn plant response rating (crop injury, 0 = no effect, 100 = complete kill) at 125 g/ha [10] [%] | Corn plant response rating (crop injury, 0 = no effect, 100 = complete kill) at 500 g/ha [10] [%] | other results
Cc1c(F)cccc1NC(=O)[C@H]1C(=O)N(C)C[C@@H]1c1ccc(C(F)(F)F)cc1 [Compound 1386] | 90 | 80 | 100 | 90 | 90 | 90 | 90 | 80 | 80 | 60 | 70 | 50 | 60 | 60 | 70 | 70 | 90 | 90 | 70 | 80 | pest or weed control at 125 g/ha [11]: 90%; pest or weed control at 500 g/ha [11]: 90%; pest or weed control at 125 g/ha [12]: 40%; pest or weed control at 500 g/ha [12]: 70%; pest or weed control at 125 g/ha [13]: 20%; pest or weed control at 500 g/ha [13]: 50%; pest or weed control at 125 g/ha [14]: 40%; pest or weed control at 500 g/ha [14]: 60%; plant injury at 125 g/ha [15]: 50%; plant injury at 500 g/ha [15]: 60%
Cc1ccc([C@H]2CN(C)C(=O)[C@@H]2C(=O)Nc2ccccc2F)cc1Cl [Compound 1384] | 70 | 30 | 90 | 90 | 90 | 90 | 30 | 30 | 0 | 0 | 70 | 30 | 30 | 70 | 40 | 60 | 90 | 90 | 70 | 90 | pest or weed control at 125 g/ha [11]: 80%; pest or weed control at 500 g/ha [11]: 90%; pest or weed control at 125 g/ha [12]: 0%; pest or weed control at 500 g/ha [12]: 20%; pest or weed control at 125 g/ha [13]: 40%; pest or weed control at 500 g/ha [13]: 40%; pest or weed control at 125 g/ha [14]: 30%; pest or weed control at 500 g/ha [14]: 30%; plant injury at 125 g/ha [15]: 0%; plant injury at 500 g/ha [15]: 50%
